Data on 15 molecules can be found in patent EP4603105A1, “PHARMACEUTICAL COMPOSITION CONTAINING CYCLIC COMPOUND HAVING SELECTIVE KRAS INHIBITORY EFFECT AGAINST HRAS AND NRAS” (CHUGAI SEIYAKU KABUSHIKI KAISHA, priority 2022, dated 2024).

The target of one assay is HRAS wild-type protein (Homo sapiens, UniProt P01112). Briefly: Binding to HRAS by surface plasmon resonance (SPR), KD and KD ratio to KRAS. The note with it: ratio of the KD value with respect to HRAS wild-type protein to the KD value with respect to KRAS. The gist of the method:
(§1)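 Each cycle, GDP-bound biotin-Avi RAS was captured (~100–300 RU), compound concentrations were injected low to high for 75 s each at 100 µL/min, then the chip was regenerated. Buffer: HBS pH 7.4, 10 mM MgCl2, 10 µM GDP, 1 mM DTT, 4% DMSO; 30°C. KD from a 1:1 binding model.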
(In SPR one partner is held on a chip, and binding of the other changes the refractive index at the surface.)

For assay [1], the system named is human lung cancer strain NCI-H441. In kind it is cell-based. The gist of the method:
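Signal came from […] measured per well once the reagent was added. Beforehand, cells were cultured at 37°C and 5% carbon dioxide on a compound series serially diluted in dimethyl sulfoxide.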

Assay [2] deals with GDP-bound NRAS wild-type protein (Homo sapiens, UniProt P01111). Briefly: Binding to NRAS by surface plasmon resonance (SPR), KD and KD ratio to KRAS. The conditions noted are these: ratio of the KD value with respect to GDP-bound NRAS wild-type protein to the KD value with respect to KRAS. In outline:
as §1

Sequence of GDP-bound NRAS wild-type protein (P01111 whole entry): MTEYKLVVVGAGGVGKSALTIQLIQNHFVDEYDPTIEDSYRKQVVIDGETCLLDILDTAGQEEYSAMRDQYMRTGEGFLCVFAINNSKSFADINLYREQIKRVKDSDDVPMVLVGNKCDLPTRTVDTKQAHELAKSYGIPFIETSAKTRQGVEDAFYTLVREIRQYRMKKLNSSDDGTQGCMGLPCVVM
Sequence of HRAS wild-type protein (P01112 whole entry): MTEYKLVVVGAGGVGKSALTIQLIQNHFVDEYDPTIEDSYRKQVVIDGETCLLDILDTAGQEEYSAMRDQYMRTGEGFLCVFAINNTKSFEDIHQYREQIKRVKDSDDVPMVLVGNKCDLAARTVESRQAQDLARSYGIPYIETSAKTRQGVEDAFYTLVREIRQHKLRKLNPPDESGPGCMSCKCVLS

Turning to `CC[C@H](C)[C@@H]1NC(=O)[C@H](CC(C)C)N(C)C(=O)C[C@@H](C(=O)N2CCOCC2)N(C)C(=O)[C@H](C2CCCC2)N(C)C(=O)C2(CCCC2)NC(=O)[C@@H]2CCCN2C(=O)[C@H](CCc2ccc(C(F)(F)F)c(Cl)c2)NC(=O)CN(C)C(=O)[C@H](Cc2ccc(C)cc2)N2CC/C=C\C[C@@H](C2=O)N(C)C(=O)CN(C)C1=O` [PP0461], on HRAS wild-type protein, the “HRAS /KRAS” value was “A (a compound having 10 or more and less than 20 is denoted as A)”. Moreover, the IC50 (in general, the point on the concentration scale where inhibition reaches its midpoint) in assay [1] worked out at 23.2 nM. Further, the “NRAS /KRAS” value in assay [2] is “A (a compound having 10 or more and less than 20 is denoted as A)”.
In the case of `CC[C@H](C)[C@@H]1NC(=O)[C@H](CC(C)C)N(C)C(=O)C[C@@H](C(=O)N2CCOCC2)N(C)C(=O)[C@H](C2CCCC2)N(C)C(=O)C2(CCCC2)NC(=O)[C@@H]2CCCN2C(=O)[C@H](CCc2ccc(C(F)(F)F)c(Cl)c2)NC(=O)CN(C)C(=O)[C@H](Cc2ccc(C(F)(F)F)cc2)N2CC=CC[C@@H](C2=O)N(C)C(=O)CN(C)C1=O` [PP0462], the “HRAS /KRAS” value on HRAS wild-type protein is “C (A compound having a KD ratio of 0.1 or more and less than 3 is denoted as C)”. In assay [1], this molecule gave an IC50 of 15.1 nM. In addition, the “NRAS /KRAS” value in assay [2] is “C (A compound having a KD ratio of 0.1 or more and less than 3 is denoted as C)”.
For the molecule `CC[C@H](C)[C@@H]1NC(=O)[C@H](CC(C)C)N(C)C(=O)C[C@@H](C(=O)N2CCOCC2)N(C)C(=O)[C@H](C2CCCC2)N(C)C(=O)C2(CCCC2)NC(=O)[C@@H]2CCCN2C(=O)[C@H](CCc2ccc(C(F)(F)F)c(Cl)c2)NC(=O)CN(C)C(=O)[C@H](Cc2ccc(C(F)(F)F)cc2)N2CC/C=C\C[C@@H](C2=O)N(C)C(=O)CN(C)C1=O` [PP0463], on HRAS wild-type protein, the “HRAS /KRAS” value was “A (a compound having 10 or more and less than 20 is denoted as A)”. Inhibition in assay [1] was half-maximal at 26.3 nM (IC50). In addition, the “NRAS /KRAS” value in assay [2] was “A (a compound having 10 or more and less than 20 is denoted as A)”.
Take `CC[C@H](C)[C@@H]1NC(=O)[C@H](CC(C)C)N(C)C(=O)C[C@@H](C(=O)N2CCOCC2)N(C)C(=O)[C@H](C2CCCC2)N(C)C(=O)C2(CCC2)NC(=O)[C@@H]2CC(F)(F)CN2C(=O)[C@H](CCc2cc(F)c(C(F)(F)F)c(F)c2)NC(=O)CN(C)C(=O)[C@H](Cc2ccc(C(F)(F)F)cc2)N2CCCCC[C@@H](C2=O)N(C)C(=O)CN(C)C1=O` [PP0464]: the “HRAS /KRAS” value at HRAS wild-type protein is “B (a compound having 3 or more and less than 10 is denoted as B)”. Moreover, the IC50 in assay [1] came out at 17.6 nM. In addition, in assay [2], the “NRAS /KRAS” value was “B (a compound having 3 or more and less than 10 is denoted as B)”.
For `CC[C@H](C)[C@@H]1NC(=O)[C@H](CC(C)C)N(C)C(=O)C[C@@H](C(=O)N(C)C)N(C)C(=O)[C@H](C2CCCC2)N(C)C(=O)C2(CCCC2)NC(=O)[C@@H]2CC(F)(F)CN2C(=O)[C@H](CCc2cc(F)c(C(F)(F)F)c(F)c2)NC(=O)CN(C)C(=O)[C@H](Cc2ccc(C(F)(F)F)cc2)N2CCCCC[C@@H](C2=O)N(C)C(=O)CN(C)C1=O` [PP0465], the “HRAS /KRAS” value on HRAS wild-type protein was “B (a compound having 3 or more and less than 10 is denoted as B)”. The molecule further came in with an IC50 in assay [1] of 18 nM. Besides, the “NRAS /KRAS” value in assay [2] is “B (a compound having 3 or more and less than 10 is denoted as B)”.
As to `CC[C@H](C)[C@@H]1NC(=O)[C@H](CC(C)C)N(C)C(=O)C[C@@H](C(=O)N(C)C)N(C)C(=O)[C@H](C2CCCC2)N(C)C(=O)C2(CCC2)NC(=O)[C@@H]2CC(F)(F)CN2C(=O)[C@H](CCc2cc(F)c(C(F)(F)F)c(F)c2)NC(=O)CN(C)C(=O)[C@H](Cc2ccc(C(F)(F)F)cc2)N2CCCCC[C@@H](C2=O)N(C)C(=O)CN(C)C1=O` [PP0466], at HRAS wild-type protein, the “HRAS /KRAS” value was “B (a compound having 3 or more and less than 10 is denoted as B)”. In assay [1], this molecule had an IC50 of 22.6 nM. In addition, in assay [2], the “NRAS /KRAS” value was “B (a compound having 3 or more and less than 10 is denoted as B)”.
`CCO[C@@H]1C[C@H]2C(=O)NC3(CCC3)C(=O)N(C)[C@@H](C3CCCC3)C(=O)N(C)[C@H](C(=O)N3CCOCC3)CC(=O)N(C)[C@@H](CC(C)C)C(=O)N[C@@H]([C@@H](C)CC)C(=O)N(C)CC(=O)N(C)[C@H]3CCCCCN(C3=O)[C@@H](Cc3ccc(C(F)(F)F)cc3)C(=O)N(C)CC(=O)N[C@@H](CCc3cc(F)c(C(F)(F)F)c(F)c3)C(=O)N2C1` [PP0467]: the “HRAS /KRAS” value at HRAS wild-type protein is “B (a compound having 3 or more and less than 10 is denoted as B)”. In assay [1], this molecule had an IC50 of 33.8 nM. Moreover, the “NRAS /KRAS” value in assay [2] was “B (a compound having 3 or more and less than 10 is denoted as B)”.
For the molecule `CCO[C@@H]1C[C@H]2C(=O)NC3(CCCC3)C(=O)N(C)[C@@H](C3CCCC3)C(=O)N(C)[C@H](C(=O)N(C)C)CC(=O)N(C)[C@@H](CC(C)C)C(=O)N[C@@H]([C@@H](C)CC)C(=O)N(C)CC(=O)N(C)[C@H]3CCCCCN(C3=O)[C@@H](Cc3ccc(C(F)(F)F)cc3)C(=O)N(C)CC(=O)N[C@@H](CCc3cc(F)c(C(F)(F)F)c(F)c3)C(=O)N2C1` [PP0468], the “HRAS /KRAS” value on HRAS wild-type protein was “B (a compound having 3 or more and less than 10 is denoted as B)”. The molecule also returned an IC50 in assay [1] of 37.2 nM. In addition, the “NRAS /KRAS” value in assay [2] was “B (a compound having 3 or more and less than 10 is denoted as B)”.
Consider `CC[C@H](C)[C@@H]1NC(=O)[C@H](C)N(C)C(=O)C[C@@H](C(=O)N(C)C)N(C)C(=O)[C@H](C2CCCC2)N(C)C(=O)C2(CCC2)NC(=O)[C@@H]2CCCN2C(=O)[C@H](CCc2cc(F)c(C(F)(F)F)c(F)c2)NC(=O)CN(C)C(=O)[C@H](Cc2ccc(C(F)(F)F)cc2)N2CCCCC[C@@H](C2=O)N(C)C(=O)CN(C)C1=O` [PP0470], for which the “HRAS /KRAS” value on HRAS wild-type protein was “B (a compound having 3 or more and less than 10 is denoted as B)”. The same molecule yielded an IC50 in assay [1] of 51.9 nM. In addition, the “NRAS /KRAS” value in assay [2] was “B (a compound having 3 or more and less than 10 is denoted as B)”.
For the molecule `CC[C@H](C)[C@@H]1NC(=O)[C@H](C)N(C)C(=O)C[C@@H](C(=O)N2CCOCC2)N(C)C(=O)[C@H](C2CCCC2)N(C)C(=O)C2(CCC2)NC(=O)[C@@H]2CC(F)(F)CN2C(=O)[C@H](CCc2cc(F)c(C(F)(F)F)c(F)c2)NC(=O)CN(C)C(=O)[C@H](Cc2ccc(C(F)(F)F)cc2)N2CCCCC[C@@H](C2=O)N(C)C(=O)CN(C)C1=O` [PP0471], the “HRAS /KRAS” value on HRAS wild-type protein was “B (a compound having 3 or more and less than 10 is denoted as B)”. In assay [1], this molecule yielded an IC50 of 37.7 nM. Besides, in assay [2], the “NRAS /KRAS” value was “B (a compound having 3 or more and less than 10 is denoted as B)”.
As for `CC[C@H](C)[C@@H]1NC(=O)[C@H](C)N(C)C(=O)C[C@@H](C(=O)N(C)C)N(C)C(=O)[C@H](C2CCCC2)N(C)C(=O)C2(CCCC2)NC(=O)[C@@H]2CC(F)(F)CN2C(=O)[C@H](CCc2cc(F)c(C(F)(F)F)c(F)c2)NC(=O)CN(C)C(=O)[C@H](Cc2ccc(C(F)(F)F)cc2)N2CCCCC[C@@H](C2=O)N(C)C(=O)CN(C)C1=O` [PP0472], the “HRAS /KRAS” value at HRAS wild-type protein was “B (a compound having 3 or more and less than 10 is denoted as B)”. In assay [1], this molecule came in with an IC50 of 24.4 nM. In addition, the “NRAS /KRAS” value in assay [2] was “B (a compound having 3 or more and less than 10 is denoted as B)”.
In the case of `CC[C@H](C)[C@@H]1NC(=O)[C@H](C)N(C)C(=O)C[C@@H](C(=O)N(C)C)N(C)C(=O)[C@H](C2CCCC2)N(C)C(=O)C2(CCC2)NC(=O)[C@@H]2CC(F)(F)CN2C(=O)[C@H](CCc2cc(F)c(C(F)(F)F)c(F)c2)NC(=O)CN(C)C(=O)[C@H](Cc2ccc(C(F)(F)F)cc2)N2CCCCC[C@@H](C2=O)N(C)C(=O)CN(C)C1=O` [PP0473], the “HRAS /KRAS” value on HRAS wild-type protein is “C (A compound having a KD ratio of 0.1 or more and less than 3 is denoted as C)”. In addition, the IC50 in assay [1] worked out at 14.8 nM. Besides, in assay [2], the “NRAS /KRAS” value is “C (A compound having a KD ratio of 0.1 or more and less than 3 is denoted as C)”.
Take `CCO[C@@H]1C[C@H]2C(=O)NC3(CCC3)C(=O)N(C)[C@@H](C3CCCC3)C(=O)N(C)[C@H](C(=O)N3CCOCC3)CC(=O)N(C)[C@@H](C)C(=O)N[C@@H]([C@@H](C)CC)C(=O)N(C)CC(=O)N(C)[C@H]3CCCCCN(C3=O)[C@@H](Cc3ccc(C(F)(F)F)cc3)C(=O)N(C)CC(=O)N[C@@H](CCc3cc(F)c(C(F)(F)F)c(F)c3)C(=O)N2C1` [PP0474]: the “HRAS /KRAS” value at HRAS wild-type protein is “B (a compound having 3 or more and less than 10 is denoted as B)”. The molecule further displayed an IC50 in assay [1] of 19.9 nM. Further, the “NRAS /KRAS” value in assay [2] was “B (a compound having 3 or more and less than 10 is denoted as B)”.
Turning to `CCO[C@@H]1C[C@H]2C(=O)NC3(CCCC3)C(=O)N(C)[C@@H](C3CCCC3)C(=O)N(C)[C@H](C(=O)N(C)C)CC(=O)N(C)[C@@H](C)C(=O)N[C@@H]([C@@H](C)CC)C(=O)N(C)CC(=O)N(C)[C@H]3CCCCCN(C3=O)[C@@H](Cc3ccc(C(F)(F)F)cc3)C(=O)N(C)CC(=O)N[C@@H](CCc3cc(F)c(C(F)(F)F)c(F)c3)C(=O)N2C1` [PP0475], the “HRAS /KRAS” value on HRAS wild-type protein is “B (a compound having 3 or more and less than 10 is denoted as B)”. In assay [1], this molecule came in with an IC50 of 18.7 nM. In addition, in assay [2], the “NRAS /KRAS” value was “B (a compound having 3 or more and less than 10 is denoted as B)”.
As to `CCO[C@@H]1C[C@H]2C(=O)NC3(CCC3)C(=O)N(C)[C@@H](C3CCCC3)C(=O)N(C)[C@H](C(=O)N(C)C)CC(=O)N(C)[C@@H](C)C(=O)N[C@@H]([C@@H](C)CC)C(=O)N(C)CC(=O)N(C)[C@H]3CCCCCN(C3=O)[C@@H](Cc3ccc(C(F)(F)F)cc3)C(=O)N(C)CC(=O)N[C@@H](CCc3cc(F)c(C(F)(F)F)c(F)c3)C(=O)N2C1` [PP0476], on HRAS wild-type protein, the “HRAS /KRAS” value is “B (a compound having 3 or more and less than 10 is denoted as B)”. This molecule registered an IC50 in assay [1] of 4.9 nM. The “NRAS /KRAS” value in assay [2] is “B (a compound having 3 or more and less than 10 is denoted as B)”.
